Results on 4 compounds are retold here after patent US20060039911A1, “Method for the treatment of gastroesophageal reflux disease” (Aphton Corporation, priority 1998, published 2006).

One assay deals with GERD patients. The note with it: cited from earlier work.
For a further assay, the system named is parietal cell. The note with it: meal-induced gastric acid secretion; cited from earlier work.
The subject of assay [1] is pH of the stomach contents. The assay is described as follows: pH of the stomach contents of treated pigs. It is filed as in vivo. An excerpt: FIG. 1 illustrates experimental data concerning the percentage of time that the gastric contents remain above pH 3 in different groups of pigs treated with ranitidine (4 animals), omeprazole (5 animals) and hG17(1-9) (4 animals), as compared to six (6) control animals.
FIG. 2 illustrates the percentage of time that the gastric contents remain above pH 4 in a group of untreated (control) pigs […] and groups of pigs treated with human gastrin 17(1-9)Ser9-Diphtheria […] (4 animals), ranitidine (4 animals) and omeprazole (5 animals) as described in FIG. 1.
FIG. 3 depicts the baseline median pH of the gastric contents of a group of six (6) untreated (control) pigs and groups of four (4) pigs treated with human G17(1-9)Ser9-Diphtheria Toxoid, […] pigs with ranitidine and five (5) pigs with omeprazole as described in FIG. 1.
In the following Examples, the anti G17 immunogenic composition, 150 mg ranitidine and 60 mg omeprazole were administered to pigs and the resulting changes in the pH of the stomach contents before and after treatment were measured. Specifically, following the stomach pH measurements of the untreated control state of each pig, the stomach pH of the same pigs was measured after the animals were treated with either ranitidine, or composition of human gastrin 17(1-9)-h(G 17)ser9-Diphtheria Toxoid (Gastrimmune), or omeprazole administered individually and at different times in each of four animals (pigs).

A further assay deals with gastrin-17 (Homo sapiens, UniProt P01350). In words: Serum anti-gastrin antibody response of Gastrimmune-immunized mice (ELISA). It is filed as in vivo. From the text: Gastrin neutralization was achieved by using the immunological composition Gastrimmune which is composed of the amino terminal domain of gastrin-17 linked, via an amino acid or peptide spacer to diphtheria toxoid which acts as the immunogenic carrier.
Serum antibody titers rose within 2 weeks of the initial immunization to levels with an antigen binding capacity of >10^−9M. The presence of anti-gastrin antibodies within the serum of Gastrimmune-immunized mice was confirmed by using an ELISA. As expected, no bound gastrin levels were detected in animals immunized with control immunogen.

[2] abbreviates: 400-800 mg cimetidine and 150-300 mg ranitidine twice daily.

On to `CN/C(=N/CCSCc1nc[nH]c1C)NC#N` [cimetidine], for which, in the assay on GERD patients (setting [2]), the “patients with healing of esophagitis, endoscopically determined (mean)” value was 48% and the “patients with symptomatic relief of GERD (mean)” value is 61%. The “efficacy in GERD patients at doses and durations proven effective in healing peptic ulcers” value in the assay on GERD patients (GERD patients, peptic ulcer doses and durations) is “not effective in GERD”.

As to `Cc1c(OCC(F)(F)F)ccnc1C[S+]([O-])c1nc2ccccc2[nH]1` (stereo not drawn) [lansoprazole], in the assay with GERD patients (human, in vivo), the “effectiveness in alleviating the symptoms of GERD esophagitis compared with histamine H2 blockers” value is “more effective than histamine H2 blockers”.

Consider heptadecagastrin [Peptide G17], for which the “potency as stimulator of gastric acid secretion relative to histamine” value in the assay with parietal cell is 1500 times.

Turning to “human gastrin 17(1-9)-h(G 17)ser9-Diphtheria Toxoid [Gastrimmune]”, the “inhibition of acid output from the stomach” value in assay [1] is “inhibited stomach acid output at a level of effectiveness between ranitidine and omeprazole”. Besides, the “time that the gastric contents remain above pH 3” value in assay [1] (FIG. 1, 150 mg ranitidine, 60 mg omeprazole) is on record as “for a longer period of time than in the pigs treated with ranitidine”. In assay [1] (FIG. 2, 150 mg ranitidine, 60 mg omeprazole), the “time that the gastric contents remain above pH 4” value was “for a longer period of time than in the pigs treated with ranitidine”. The “median pH of the stomach contents” value in assay [1] (FIG. 3) is on record as “higher than ranitidine treated pigs”. The “presence of anti-gastrin antibodies within the serum (ELISA)” value on gastrin-17 (Gastrimmune-immunized mice) is on record as “confirmed”. Moreover, the “cross-reactivity of the antibodies raised” value at gastrin-17 (mouse, in vivo) is “cross-reacted with both amidated and glycine-extended gastrin-17”. Also, at gastrin-17 (within 2 weeks of the initial immunization), the “antigen binding capacity of serum antibody titers” value was > 10^−9 M.
